In test [1] the target is T1, bovine vesicular acetylcholine transporter (VAChT) (Bos taurus, UniProt E1BK36).
T1 sequence (E1BK36 1-524): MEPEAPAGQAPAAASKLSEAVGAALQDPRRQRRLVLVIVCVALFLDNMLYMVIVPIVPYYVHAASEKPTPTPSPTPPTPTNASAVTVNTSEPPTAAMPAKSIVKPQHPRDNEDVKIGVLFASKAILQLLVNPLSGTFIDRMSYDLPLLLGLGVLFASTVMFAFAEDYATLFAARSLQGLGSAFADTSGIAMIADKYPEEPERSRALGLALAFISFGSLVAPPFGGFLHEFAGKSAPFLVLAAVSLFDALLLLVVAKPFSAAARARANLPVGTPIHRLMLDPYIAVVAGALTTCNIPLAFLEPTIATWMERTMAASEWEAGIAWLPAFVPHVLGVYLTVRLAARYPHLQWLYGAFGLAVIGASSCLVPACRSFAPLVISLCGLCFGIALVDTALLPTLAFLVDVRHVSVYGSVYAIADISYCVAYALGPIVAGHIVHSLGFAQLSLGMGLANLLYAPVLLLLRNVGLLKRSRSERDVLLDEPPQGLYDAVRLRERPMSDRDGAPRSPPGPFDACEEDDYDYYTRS
Description: Radioligand Binding Assay. Particulars: Bovine binding Ki, CHO-K1 membranes with recombinant bovine VAChT, [3H]Compound X6 0.3 nM.

The test system of test [2] is Haemonchus contortus L3. Description: Haemonchus contortus, Larvae Stage 3 (HcL3) In Vitro Assay. The following applies: Haemonchus contortus.
In test [3] the test system is Dirofilaria immitis microfilariae. Description: Dirofilaria immitis, Microfilariae (DiMF) In Vitro Assay. The following applies: Dirofilaria immitis.
[4] abbreviates: 96 h, read-out: HcL3 MEC, Minimal Effective Concentration whereby worm motility is inhibited by approximately 70%, 37° C., tested 0.001-100 μM.
[5] abbreviates: 72 h, read-out: Di MF, MEC, decrease in microfilariae motility by visual assessment, curve starting at 100 μM.
[6] abbreviates: 96 hours, 37° C., read-out: HcL3 MEC.

pKi: −log10 of the molar value. Like-named read-outs stand apart in the source and are kept apart here. Some results are limits rather than exact numbers.

As a reminder, the pKi is −log10 of the Ki, conventionally taken in molar units. On to `COc1ccc(/C=C/CN2CCC3(CC2)CN(C(=O)NCc2ccnc(Cl)c2)c2ccc4c(cnn4C)c23)cc1` [Example 54, (E)-N-((2-chloropyridin-4-yl)methyl)-1-(3-(4-methoxyphenyl)allyl)-3′-methyl-3′H-spiro[piperidine-4,8′-pyrrolo[3,2-e]indazole]-6′(7′H)-carboxamide], for which the negative logarithm of the Ki (pKi) in test [1] was 5.85. Besides, the minimal effective concentration in test [2] (setting [4]) is more than 100 µM; in test [3] (setting [5]), 33 µM.
For `CC1(C)Oc2cc3c(cc2O1)C1(CCN(C/C=C/c2ccc(Cl)cc2)CC1)CN3C(=O)NCc1ccnc(Cl)c1` [Example 8, (E)-1-(3-(4-chlorophenyl)allyl)-N-((2-chloropyridin-4-yl)methyl)-2′,2′-dimethylspiro[piperidine-4,7′-[1,3]dioxolo[4,5-f]indole]-5′(6′H)-carboxamide], in test [1], the negative logarithm of the Ki (pKi) was 5.82. Moreover, the minimal effective concentration in test [2] (setting [6]) was determined as 100 µM; in test [3] (72 hours, read-out: Di MF) it was 10 µM.
Turning to `O=C(NCc1ccnc(F)c1)N1CC2(CCN(C/C=C/c3ccc(F)cc3)CC2)c2cc(Br)ccc21` [Example 106, 5-bromo-1′-[(E)-3-(4-fluorophenyl)allyl]-N-[(2-fluoro-4-pyridyl)methyl]spiro[indoline-3,4′-piperidine]-1-carboxamide], the pKi in test [1] was 7.14. The minimal effective concentration is 3.3 µM in test [2] (setting [4]) and 10 µM in test [3] (setting [5]).
For `Cc1cccc2c1C1(CCN(C/C=C/c3ccc(Cl)c(Cl)c3)CC1)CN2C(=O)NCc1ccnc(F)c1` [Example 114, 1′-[(E)-3-(3,4-dichlorophenyl)allyl]-N-[(2-fluoro-4-pyridyl)methyl]-4-methyl-spiro[indoline-3,4′-piperidine]-1-carboxamide], in that order: 6.62, 5.7 µM and 10 µM.
Turning to `O=C(NCc1ccnc(F)c1)N1CC2(CCN(C/C=C/c3ccc(Cl)cc3)CC2)c2c1cc(Cl)c(F)c2Cl` [Example 61, (E)-4,6-dichloro-1′-(3-(4-chlorophenyl)allyl)-5-fluoro-N-((2-fluoropyridin-4-yl)methyl)spiro[indoline-3,4′-piperidine]-1-carboxamide], the pKi in test [1] was 6.17. Besides, the minimal effective concentration in test [2] (setting [4]) is 100 µM; in test [3] (setting [5]), 10 µM.
As for `O=C(NCc1ccnc(Cl)c1)N1CC2(CCN(C/C=C/c3ccc(Cl)c(Cl)c3)CC2)c2c1ccc1scnc21` [Example 40, (E)-N-((2-chloropyridin-4-yl)methyl)-1-(3-(3,4-dichlorophenyl)allyl)spiro[piperidine-4,8′-thiazolo[4,5-e]indole]-6′(7′H)-carboxamide], in test [1], the negative-log Ki (pKi) was 6.96. Besides, the minimal effective concentration was 4.8 µM in test [2] (setting [4]) and 5.7 µM in test [3] (setting [5]).
As for `O=C(NCc1ccnc(Cl)c1)N1CC2(CCN(C/C=C/c3ccc(Cl)cc3)CC2)c2c(SC(F)(F)F)cccc21` [Example 89, (E)-1′-(3-(4-chlorophenyl)allyl)-N-((2-chloropyridin-4-yl)methyl)-4-(trifluoromethylthio)spiro[indoline-3,4′-piperidine]-1-carboxamide], the pKi in test [1] was 6.11. In addition, the results for the minimal effective concentration in test [2] (setting [4]) and in test [3] (setting [5]) were 100 µM and 6.9 µM, respectively.
Turning to `Cn1ncc2c3c(ccc21)N(C(=O)NCc1ccnc(Cl)c1)CC31CCN(C/C=C/c2ccc(C(F)(F)F)cn2)CC1` [Example 53, (E)-N-((2-chloropyridin-4-yl)methyl)-3′-methyl-1-(3-(5-(trifluoromethyl)pyridin-2-yl)allyl)-3′H-spiro[piperidine-4,8′-pyrrolo[3,2-e]indazole]-6′(7′H)-carboxamide], the pKi in test [1] is 5.71. The minimal effective concentration is more than 100 µM in test [2] (setting [4]) and 33 µM in test [3] (setting [5]).
On to `O=C(NCc1ccnc(Cl)c1)N1CC2(CCN(C/C=C/c3ccc(Cl)c(Cl)c3)CC2)c2cc(Cl)c(C(F)(F)F)cc21` [Example 135, (E)-5-chloro-N-((2-chloropyridin-4-yl)methyl)-1′-(3-(3,4-dichlorophenyl)allyl)-6-(trifluoromethyl)spiro[indoline-3,4′-piperidine]-1-carboxamide], for which the negative-log Ki (pKi) in test [1] was 6.93. Also, the minimal effective concentration in test [2] (setting [6]) was 3.3 µM; in test [3] (72 hours, read-out: Di MF) it was 57.4 µM.
As for `O=C(NCc1ccnc(Cl)c1)N1CC2(CCN(C/C=C/c3ccc(Cl)cc3)CC2)c2cc(S(=O)(=O)C(F)(F)F)ccc21` [Example 78, (E)-1′-(3-(4-chlorophenyl)allyl)-N-((2-chloropyridin-4-yl)methyl)-5-(trifluoromethylsulfonyl)spiro[indoline-3,4′-piperidine]-1-carboxamide], in test [1], the pKi is 5.89. Also, the minimal effective concentration in test [2] (setting [4]) is 100 µM; in test [3] (setting [5]) it was 1 µM.
Regarding `O=C(NCc1ccnc(Cl)c1)N1CC2(CCN(C/C=C/c3ccc(F)cc3)CC2)c2cc(Cl)c(Cl)cc21` [Example 141, (E)-5,6-dichloro-N-((2-chloropyridin-4-yl)methyl)-1′-(3-(4-fluorophenyl)allyl)spiro[indoline-3,4′-piperidine]-1-carboxamide], the pKi in test [1] is 6.78. Further, the minimal effective concentration was 3.3 µM in test [2] (setting [6]) and 4.4 µM in test [3] (72 hours, read-out: Di MF).
In the case of `O=C(NCc1ccnc(Cl)c1)N1CC2(CCN(C/C=C/c3ccc(Cl)c(Cl)c3)CC2)c2cc(C(F)(F)F)ccc21` [Example 133, (E)-N-((2-chloropyridin-4-yl)methyl)-1′-(3-(3,4-dichlorophenyl)allyl)-5-(trifluoromethyl)spiro[indoline-3,4′-piperidine]-1-carboxamide], in test [1], the negative logarithm of the Ki (pKi) was 6.26. In addition, the minimal effective concentration in test [2] (setting [6]) came to 3.3 µM; in test [3] (72 hours, read-out: Di MF), 7.6 µM.
With `O=C(NCc1ccnc(Cl)c1)N1CC2(CCN(C/C=C/c3ccc(Cl)c(Cl)c3)CC2)c2cc(Cl)cc(Cl)c21` [Example 171, (E)-5,7-dichloro-N-((2-chloropyridin-4-yl)methyl)-1′-(3-(3,4-dichlorophenyl)allyl)spiro[indoline-3,4′-piperidine]-1-carboxamide], the negative-log Ki (pKi) in test [1] is 7.68. Moreover, the minimal effective concentration in test [2] (setting [6]) is 69.1 µM; in test [3] (72 hours, read-out: Di MF) it was 7.6 µM.
The corresponding values for `Cc1ccc2c(c1)C1(CCN(C/C=C/c3ccc(Cl)c(Cl)c3)CC1)CN2C(=O)NCc1ccnc(Cl)c1` [Example 123, (E)-N-((2-chloropyridin-4-yl)methyl)-1′-(3-(3,4-dichlorophenyl)allyl)-5-methylspiro[indoline-3,4′-piperidine]-1-carboxamide] are 7.68, 1 µM and 10.2 µM.
For `O=C(NCc1ccnc(F)c1)N1CC2(CCN(C/C=C/c3ccc(Cl)cc3)CC2)c2cc3c(cc21)COC3` [Example 2, (E)-1′-(3-(4-chlorophenyl)allyl)-N-((2-fluoropyridin-4-yl)methyl)-5,7-dihydrospiro[furo[3,4-f]indole-3,4′-piperidine]-1(2H)-carboxamide], in test [1], the pKi was 6.49. Besides, the minimal effective concentration in test [2] (setting [4]) stood at 18.2 µM; in test [3] (setting [5]), 10 µM.
On to `Cc1nc2c3c(ccc2s1)N(C(=O)NCc1ccnc(Cl)c1)CC31CCN(C/C=C/c2ccc(C(F)(F)F)cn2)CC1` [Example 45, (E)-N-((2-chloropyridin-4-yl)methyl)-2′-methyl-1-(3-(5-(trifluoromethyl)pyridin-2-yl)allyl)spiro[piperidine-4,8′-thiazolo[4,5-e]indole]-6′(7′H)-carboxamide], for which the pKi in test [1] is 5.49. Moreover, the minimal effective concentration in test [2] (setting [4]) was more than 100 µM; in test [3] (setting [5]), 33 µM.
Regarding `Cn1nccc1CNC(=O)N1CC2(CCN(C/C=C/c3ccc(Cl)c(Cl)c3)CC2)c2c1ccc1scnc21` [Example 27, (E)-1-(3-(3,4-dichlorophenyl)allyl)-N-((1-methyl-1H-pyrazol-5-yl)methyl)spiro[piperidine-4,8′-thiazolo[4,5-e]indole]-6′(7′H)-carboxamide], the pKi in test [1] was 7.65. Moreover, the minimal effective concentration in test [2] (setting [6]) worked out at 10 µM; in test [3] (72 hours, read-out: Di MF), 10 µM.
Regarding `Cc1nc2c3c(ccc2s1)N(C(=O)NCc1ccnc(Cl)c1)CC31CCN(C/C=C/c2ccc(Cl)cc2)CC1` [Example 43, (E)-1-(3-(4-chlorophenyl)allyl)-N-((2-chloropyridin-4-yl)methyl)-2′-methylspiro[piperidine-4,8′-thiazolo[4,5-e]indole]-6′(7′H)-carboxamide], the negative logarithm of the Ki (pKi) in test [1] was 6.58. Also, the minimal effective concentration in test [2] (setting [4]) is more than 100 µM; in test [3] (setting [5]), 10 µM.
For `O=C(NCc1ccnc(Cl)c1)N1CC2(CCN(C/C=C/c3ccc(C(F)(F)F)cc3)CC2)c2cc(F)c(Cl)cc21` [Example 145, (E)-6-chloro-N-((2-chloropyridin-4-yl)methyl)-5-fluoro-1′-(3-(4-(trifluoromethyl)phenyl)allyl)spiro[indoline-3,4′-piperidine]-1-carboxamide], in that order: 7.32, 3.3 µM and 5.7 µM.

The values above are taken from patent publication US20160296499A1, “Spiroindoline Antiparasitic Derivatives” (ZOETIS SERVICES LLC, priority 2013, published 2016).
